In ChEMBL document CHEMBL3808392, “Design, synthesis and biological evaluation of 5-fluorouracil-derived benzimidazoles as novel type of potential antimicrobial agents” (2016):
≈ marks a conversion by molar mass, not a printed value.

Tests used:
Saccharomyces cerevisiae = assay: Antimicrobial activity against Saccharomyces cerevisiae after 24 hrs by microbroth dilution method; format: functional
Staphylococcus aureus [1] = assay: Antimicrobial activity against Staphylococcus aureus ATCC 25923 after 24 hrs by microbroth dilution method; format: functional; settings: ATCC 25923, 24 h
[2] = Antimicrobial activity against Bacillus proteus ATCC 13315 after 24 hrs by microbroth dilution method; format: functional; settings: ATCC 13315, 24 h
Micrococcus luteus = assay: Antimicrobial activity against Micrococcus luteus ATCC 4698 after 24 hrs by microbroth dilution method; format: functional; settings: ATCC 4698, 24 h
Escherichia coli [3] = assay: Antimicrobial activity against Escherichia coli DH52 after 24 hrs by microbroth dilution method; format: functional; settings: DH52, 24 h
Staphylococcus aureus [4] = assay: Antimicrobial activity against methicillin-resistant Staphylococcus aureus N315 after 24 hrs by microbroth dilution method; format: functional; settings: N315, 24 h
Candida albicans = assay: Antimicrobial activity against Candida albicans ATCC 10231 after 24 hrs by microbroth dilution method; format: functional; settings: ATCC 10231, 24 h
Escherichia coli [5] = assay: Antimicrobial activity against Escherichia coli JM109 after 24 hrs by microbroth dilution method; format: functional; settings: JM109, 24 h
Salmonella typhi = assay: Antimicrobial activity against Bacillus typhi after 24 hrs by microbroth dilution method; format: functional, Salmonella enterica subsp. enterica serovar Typhi; settings: Salmonella enterica
Bacillus spizizenii = assay: Antimicrobial activity against Bacillus subtilis ATCC 6633 after 24 hrs by microbroth dilution method; format: functional; settings: ATCC 6633, 24 h
Aspergillus flavus = assay: Antimicrobial activity against Aspergillus flavus ATCC 204304 after 24 hrs by microbroth dilution method; format: functional; settings: ATCC 204304, 24 h
Candida = assay: Antimicrobial activity against Candida mycoderma ATCC 9888 after 24 hrs by microbroth dilution method; format: functional; settings: ATCC 9888, 24 h

Compound | MIC (Saccharomyces cerevisiae) | MIC (Staphylococcus aureus [1]) | MIC [2] | MIC (Micrococcus luteus) | MIC (Escherichia coli [3]) | MIC (Staphylococcus aureus [4]) | MIC (Candida albicans) | MIC (Escherichia coli [5]) | MIC (Salmonella typhi) | MIC (Bacillus spizizenii) | MIC (Aspergillus flavus) | MIC (Candida)
O=c1c(F)cn(Cc2nc3ccccc3n2Cc2ccc(F)cc2)c(=O)n1Cc1ccc(F)cc1 | > 512 µg/mL | > 512 µg/mL | > 512 µg/mL | > 512 µg/mL | > 512 µg/mL | 512 µg/mL (≈ 1070 µM) | > 512 µg/mL | > 512 µg/mL | 512 µg/mL (≈ 1070 µM) | > 512 µg/mL | 512 µg/mL (≈ 1070 µM) | > 512 µg/mL
Cc1ccc(Cn2c(=O)c(F)cn(Cc3nc4ccccc4n3Cc3ccc(C)cc3)c2=O)cc1 | > 512 µg/mL | > 512 µg/mL | > 512 µg/mL | > 512 µg/mL | 128 µg/mL (≈ 273 µM) | > 512 µg/mL | > 512 µg/mL | > 512 µg/mL | 512 µg/mL (≈ 1090 µM) | > 512 µg/mL | > 512 µg/mL | > 512 µg/mL
OC(Cn1cncn1)(Cn1cncn1)c1ccc(F)cc1F [FLUCONAZOLE] | 16 µg/mL (≈ 52.2 µM) | – | – | – | – | – | 1 µg/mL (≈ 3.27 µM) | – | – | – | 256 µg/mL (≈ 836 µM) | 4 µg/mL (≈ 13.1 µM)
O=c1c(F)cn(Cc2nc3ccccc3n2Cc2cccc(Cl)c2)c(=O)n1Cc1cccc(Cl)c1 | 64 µg/mL (≈ 126 µM) | 512 µg/mL (≈ 1010 µM) | 64 µg/mL (≈ 126 µM) | 128 µg/mL (≈ 251 µM) | 16 µg/mL (≈ 31.4 µM) | 128 µg/mL (≈ 251 µM) | 64 µg/mL (≈ 126 µM) | 128 µg/mL (≈ 251 µM) | 64 µg/mL (≈ 126 µM) | 64 µg/mL (≈ 126 µM) | 64 µg/mL (≈ 126 µM) | 64 µg/mL (≈ 126 µM)
O=c1c(F)cn(Cc2nc3ccccc3n2Cc2ccc([N+](=O)[O-])cc2)c(=O)n1Cc1ccc([N+](=O)[O-])cc1 | > 512 µg/mL | > 512 µg/mL | > 512 µg/mL | > 512 µg/mL | > 512 µg/mL | > 512 µg/mL | > 512 µg/mL | > 512 µg/mL | 32 µg/mL (≈ 60.3 µM) | 32 µg/mL (≈ 60.3 µM) | > 512 µg/mL | > 512 µg/mL
O=c1c(F)cn(Cc2nc3ccccc3n2Cc2ccccc2Cl)c(=O)n1Cc1ccccc1Cl | > 512 µg/mL | > 512 µg/mL | > 512 µg/mL | > 512 µg/mL | > 512 µg/mL | > 512 µg/mL | 512 µg/mL (≈ 1010 µM) | > 512 µg/mL | 512 µg/mL (≈ 1010 µM) | > 512 µg/mL | 512 µg/mL (≈ 1010 µM) | 512 µg/mL (≈ 1010 µM)
COc1ccc(Cn2c(=O)c(F)cn(Cc3nc4ccccc4n3Cc3ccc(OC)cc3)c2=O)cc1 | 64 µg/mL (≈ 128 µM) | 128 µg/mL (≈ 256 µM) | 32 µg/mL (≈ 63.9 µM) | 64 µg/mL (≈ 128 µM) | 128 µg/mL (≈ 256 µM) | 32 µg/mL (≈ 63.9 µM) | 64 µg/mL (≈ 128 µM) | 16 µg/mL (≈ 32 µM) | 64 µg/mL (≈ 128 µM) | 64 µg/mL (≈ 128 µM) | 32 µg/mL (≈ 63.9 µM) | 512 µg/mL (≈ 1020 µM)
CCn1cc(C(=O)O)c(=O)c2cc(F)c(N3CCNCC3)cc21 [NORFLOXACIN] | – | 2 µg/mL (≈ 6.26 µM) | 8 µg/mL (≈ 25.1 µM) | 2 µg/mL (≈ 6.26 µM) | 1 µg/mL (≈ 3.13 µM) | 8 µg/mL (≈ 25.1 µM) | – | 1 µg/mL (≈ 3.13 µM) | 4 µg/mL (≈ 12.5 µM) | 4 µg/mL (≈ 12.5 µM) | – | –
O=c1[nH]c(=O)n(Cc2nc3ccccc3[nH]2)cc1F | 64 µg/mL (≈ 246 µM) | 128 µg/mL (≈ 492 µM) | 16 µg/mL (≈ 61.5 µM) | 64 µg/mL (≈ 246 µM) | 64 µg/mL (≈ 246 µM) | 128 µg/mL (≈ 492 µM) | 32 µg/mL (≈ 123 µM) | 32 µg/mL (≈ 123 µM) | 32 µg/mL (≈ 123 µM) | 64 µg/mL (≈ 246 µM) | 128 µg/mL (≈ 492 µM) | 64 µg/mL (≈ 246 µM)
O=c1[nH]c(=O)n(Cc2nc3cc(F)ccc3[nH]2)cc1F | 8 µg/mL (≈ 28.8 µM) | 8 µg/mL (≈ 28.8 µM) | 16 µg/mL (≈ 57.5 µM) | 16 µg/mL (≈ 57.5 µM) | 32 µg/mL (≈ 115 µM) | 16 µg/mL (≈ 57.5 µM) | 2 µg/mL (≈ 7.19 µM) | 128 µg/mL (≈ 460 µM) | 32 µg/mL (≈ 115 µM) | 128 µg/mL (≈ 460 µM) | 128 µg/mL (≈ 460 µM) | 128 µg/mL (≈ 460 µM)
CCn1c(=O)c(F)cn(Cc2nc3ccccc3n2CC)c1=O | 32 µg/mL (≈ 101 µM) | 32 µg/mL (≈ 101 µM) | 32 µg/mL (≈ 101 µM) | 32 µg/mL (≈ 101 µM) | 32 µg/mL (≈ 101 µM) | 64 µg/mL (≈ 202 µM) | 64 µg/mL (≈ 202 µM) | 16 µg/mL (≈ 50.6 µM) | 64 µg/mL (≈ 202 µM) | 32 µg/mL (≈ 101 µM) | 64 µg/mL (≈ 202 µM) | 32 µg/mL (≈ 101 µM)
CCCn1c(Cn2cc(F)c(=O)[nH]c2=O)nc2ccccc21 | 8 µg/mL (≈ 26.5 µM) | 16 µg/mL (≈ 52.9 µM) | 64 µg/mL (≈ 212 µM) | 16 µg/mL (≈ 52.9 µM) | 64 µg/mL (≈ 212 µM) | 16 µg/mL (≈ 52.9 µM) | 2 µg/mL (≈ 6.62 µM) | 64 µg/mL (≈ 212 µM) | 64 µg/mL (≈ 212 µM) | 16 µg/mL (≈ 52.9 µM) | 32 µg/mL (≈ 106 µM) | 16 µg/mL (≈ 52.9 µM)
O=c1c(F)cn(Cc2nc3ccccc3n2Cc2ccc(Cl)cc2)c(=O)n1Cc1ccc(Cl)cc1 | > 512 µg/mL | > 512 µg/mL | > 512 µg/mL | > 512 µg/mL | > 512 µg/mL | > 512 µg/mL | 4 µg/mL (≈ 7.85 µM) | > 512 µg/mL | 512 µg/mL (≈ 1010 µM) | > 512 µg/mL | > 512 µg/mL | > 512 µg/mL
O=c1c(F)cn(Cc2nc3ccccc3n2Cc2ccccc2F)c(=O)n1Cc1ccccc1F | 128 µg/mL (≈ 269 µM) | 16 µg/mL (≈ 33.6 µM) | 512 µg/mL (≈ 1070 µM) | 512 µg/mL (≈ 1070 µM) | 128 µg/mL (≈ 269 µM) | 512 µg/mL (≈ 1070 µM) | > 512 µg/mL | 128 µg/mL (≈ 269 µM) | 512 µg/mL (≈ 1070 µM) | 128 µg/mL (≈ 269 µM) | > 512 µg/mL | 512 µg/mL (≈ 1070 µM)
O=c1c(F)cn(Cc2nc3ccccc3n2Cc2ccccc2)c(=O)n1Cc1ccccc1 | > 512 µg/mL | > 512 µg/mL | > 512 µg/mL | 128 µg/mL (≈ 291 µM) | > 512 µg/mL | > 512 µg/mL | 128 µg/mL (≈ 291 µM) | > 512 µg/mL | 128 µg/mL (≈ 291 µM) | 64 µg/mL (≈ 145 µM) | 64 µg/mL (≈ 145 µM) | 128 µg/mL (≈ 291 µM)
CCCCCCCCn1c(=O)c(F)cn(Cc2nc3ccccc3n2CCCCCCCC)c1=O | > 512 µg/mL | > 512 µg/mL | > 512 µg/mL | 512 µg/mL (≈ 1060 µM) | 512 µg/mL (≈ 1060 µM) | > 512 µg/mL | 64 µg/mL (≈ 132 µM) | 512 µg/mL (≈ 1060 µM) | 512 µg/mL (≈ 1060 µM) | 512 µg/mL (≈ 1060 µM) | 512 µg/mL (≈ 1060 µM) | 512 µg/mL (≈ 1060 µM)
CCCCCCCCn1c(Cn2cc(F)c(=O)[nH]c2=O)nc2ccccc21 | 32 µg/mL (≈ 85.9 µM) | 512 µg/mL (≈ 1370 µM) | 512 µg/mL (≈ 1370 µM) | 512 µg/mL (≈ 1370 µM) | 64 µg/mL (≈ 172 µM) | 512 µg/mL (≈ 1370 µM) | 32 µg/mL (≈ 85.9 µM) | 256 µg/mL (≈ 687 µM) | 512 µg/mL (≈ 1370 µM) | 512 µg/mL (≈ 1370 µM) | 32 µg/mL (≈ 85.9 µM) | 64 µg/mL (≈ 172 µM)
CCCCCCCCCCCCn1c(Cn2cc(F)c(=O)[nH]c2=O)nc2ccccc21 | 64 µg/mL (≈ 149 µM) | > 512 µg/mL | > 512 µg/mL | > 512 µg/mL | > 512 µg/mL | > 512 µg/mL | > 512 µg/mL | > 512 µg/mL | > 512 µg/mL | > 512 µg/mL | > 512 µg/mL | 512 µg/mL (≈ 1190 µM)
CCCn1c(=O)c(F)cn(Cc2nc3ccccc3n2CCC)c1=O | 128 µg/mL (≈ 372 µM) | 32 µg/mL (≈ 92.9 µM) | 128 µg/mL (≈ 372 µM) | 32 µg/mL (≈ 92.9 µM) | 32 µg/mL (≈ 92.9 µM) | 64 µg/mL (≈ 186 µM) | 64 µg/mL (≈ 186 µM) | 16 µg/mL (≈ 46.5 µM) | 64 µg/mL (≈ 186 µM) | 64 µg/mL (≈ 186 µM) | 64 µg/mL (≈ 186 µM) | 32 µg/mL (≈ 92.9 µM)
CCCCCCCCCCCCn1c(=O)c(F)cn(Cc2nc3ccccc3n2CCCCCCCCCCCC)c1=O | > 512 µg/mL | > 512 µg/mL | 512 µg/mL (≈ 858 µM) | 512 µg/mL (≈ 858 µM) | 512 µg/mL (≈ 858 µM) | > 512 µg/mL | 256 µg/mL (≈ 429 µM) | 256 µg/mL (≈ 429 µM) | 512 µg/mL (≈ 858 µM) | 512 µg/mL (≈ 858 µM) | 512 µg/mL (≈ 858 µM) | 32 µg/mL (≈ 53.6 µM)
